In patent US4394503A, “Cephalosporin derivatives” (priority 1981, dated 1983):
Values after ≈ are worked out from the molar mass of the structure shown. Structures can show the parent of a compound that is named as a salt. Where two headings read alike, the source gives them in different places.

Tests used:
[1] = tested on: Penicillin-sensitive S. aureus (Gp-Ia); assay: In vitro antibacterial activity, two-fold agar dilution, Mueller-Hinton agar (Table 1), group Gp-Ia; assay type: cell-based; details: Staphylococcus aureus; read-out: Geometric Mean of MIC
[2] = tested on: Penicillin-resistant S. aureus (Gp-Ib); assay: In vitro antibacterial activity, two-fold agar dilution, Mueller-Hinton agar (Table 1), group Gp-Ib; assay type: cell-based; details: Staphylococcus aureus; read-out: Geometric Mean of MIC
[3] = tested on: Cephalothin-sensitive E. coli, Kl. pneumoniae and Pr. mirabilis (Gn-Ia); assay: In vitro antibacterial activity, two-fold agar dilution, Mueller-Hinton agar (Table 1), group Gn-Ia; assay type: cell-based; details: read-out: Geometric Mean of MIC
[4] = tested on: Cephalothin-resistant E. coli and Kl. pneumoniae (Gn-Ib); assay: In vitro antibacterial activity, two-fold agar dilution, Mueller-Hinton agar (Table 1), group Gn-Ib; assay type: cell-based, E. coli (3) and Kl. pneumoniae (3); details: Escherichia coli, read-out: Geometric Mean of MIC
[5] = tested on: Pr. morganii, Ent. cloacae and Ser. marcescens (Gn-II); assay: In vitro antibacterial activity, two-fold agar dilution, Mueller-Hinton agar (Table 1), group Gn-II; assay type: cell-based, Pr. morganii (1), Ent. cloacae (2) and Ser. marcescens (2); details: read-out: Geometric Mean of MIC
Ps. aeruginosa (Gn-III) = assay: In vitro antibacterial activity, two-fold agar dilution, Mueller-Hinton agar (Table 1), group Gn-III; assay type: cell-based; details: Pseudomonas aeruginosa; read-out: Geometric Mean of MIC
S. aureus Smith [6] = assay: MIC against selected test organisms (Table 2); assay type: cell-based; details: Staphylococcus aureus; Gp-Ia, PC-S; read-out: Minimum Inhibitory Concentration
S. aureus A9497 = assay: MIC against selected test organisms (Table 2); assay type: cell-based; details: Staphylococcus aureus, Gp-Ia, PC-S, read-out: Minimum Inhibitory Concentration
S. aureus BX-1633 = assay: MIC against selected test organisms (Table 2); assay type: cell-based; details: Staphylococcus aureus, BX1633; Gp-Ib, PC-R; read-out: Minimum Inhibitory Concentration
S. aureus A15092 = assay: MIC against selected test organisms (Table 2); assay type: cell-based; details: Staphylococcus aureus, Gp-Ib, PC-R, read-out: Minimum Inhibitory Concentration
E. coli Juhl [7] = assay: MIC against selected test organisms (Table 2); assay type: cell-based; details: Escherichia coli; Gn-Ia, CET-S; read-out: Minimum Inhibitory Concentration
K. pneumoniae D11 = assay: MIC against selected test organisms (Table 2); assay type: cell-based; details: Klebsiella pneumoniae, D11; Gn-Ia, CET-S; read-out: Minimum Inhibitory Concentration
P. mirabilis A9554 = assay: MIC against selected test organisms (Table 2); assay type: cell-based; details: Proteus mirabilis, A9554; Gn-Ia, CET-S; read-out: Minimum Inhibitory Concentration
E. coli A15148 = assay: MIC against selected test organisms (Table 2); assay type: cell-based; details: Escherichia coli, A15148; Gn-Ib, CET-R; read-out: Minimum Inhibitory Concentration
K. pneumoniae A 9867 = assay: MIC against selected test organisms (Table 2); assay type: cell-based; details: Klebsiella pneumoniae, A9867; Gn-Ib, CET-R; read-out: Minimum Inhibitory Concentration
P. morganii A9553 = assay: MIC against selected test organisms (Table 2); assay type: cell-based; details: Morganella morganii, A9553; Gn-II, CET-R; read-out: Minimum Inhibitory Concentration
E. cloacae A9656 = assay: MIC against selected test organisms (Table 2); assay type: cell-based; details: Enterobacter cloacae, Gn-II, CET-R, read-out: Minimum Inhibitory Concentration
S. marcescens A20019 = assay: MIC against selected test organisms (Table 2); assay type: cell-based; details: Serratia marcescens, A20019; Gn-II, CET-R; read-out: Minimum Inhibitory Concentration
P. aeruginosa A15150 = assay: MIC against selected test organisms (Table 2); assay type: cell-based; details: Pseudomonas aeruginosa, A15150; Gn-III, CET-R; read-out: Minimum Inhibitory Concentration
P. aeruginosa A9843 [8] = assay: MIC against selected test organisms (Table 2); assay type: cell-based; details: Pseudomonas aeruginosa, A9843; Gn-III, CET-R; read-out: Minimum Inhibitory Concentration
P. aeruginosa A20717 = assay: MIC against selected test organisms (Table 2); assay type: cell-based; details: Pseudomonas aeruginosa, A20717; Gn-III, CET-R; read-out: Minimum Inhibitory Concentration
B. fragilis A20928-1 = assay: MIC against selected test organisms (Table 2); assay type: cell-based; details: Bacteroides fragilis, A209281; Anaerobe, CET-S; read-out: Minimum Inhibitory Concentration
B. fragilis A21900 = assay: MIC against selected test organisms (Table 2); assay type: cell-based; details: Bacteroides fragilis, A21900; Anaerobe, CET-S; read-out: Minimum Inhibitory Concentration
B. fragilis A22021 = assay: MIC against selected test organisms (Table 2); assay type: cell-based; details: Bacteroides fragilis, A22021; Anaerobe, CET-R; read-out: Minimum Inhibitory Concentration
B. fragilis A22693 = assay: MIC against selected test organisms (Table 2); assay type: cell-based; details: Bacteroides fragilis, A22693; Anaerobe, CET-R; read-out: Minimum Inhibitory Concentration
B. fragilis A22695 = assay: MIC against selected test organisms (Table 2); assay type: cell-based; details: Bacteroides fragilis, A22695; Anaerobe, AMP-R; read-out: Minimum Inhibitory Concentration
B. fragilis A22533 = assay: MIC against selected test organisms (Table 2); assay type: cell-based; details: Bacteroides fragilis, A22533; Anaerobe, AMP-R; read-out: Minimum Inhibitory Concentration
C. difficile A21675 = assay: MIC against selected test organisms (Table 2); assay type: cell-based; details: Clostridioides difficile, A21675; Anaerobe, CLDM-R; read-out: Minimum Inhibitory Concentration
C. perfringens A9635 = assay: microbe, parasite or virus in culture; assay type: cell-based; details: Clostridium perfringens, A9635, read-out: Minimum Inhibitory Concentration
P. acnes A21933 = assay: MIC against selected test organisms (Table 2); assay type: cell-based; details: Cutibacterium acnes, A21933; Anaerobe, CLDM-R; read-out: Minimum Inhibitory Concentration
E. coli Juhl [9] = assay: Therapeutic efficacy in experimentally infected mice (Table 5); assay type: in vivo; details: Escherichia coli, im, 120 h; i.m., immediately after intraperitoneal challenge, 5 days observation; read-out: PD50 (median protective dose)
Description: (§1) The test compounds were administered intramuscularly immediately after the bacterial challenge.

P. aeruginosa A9843 [10] = assay: as above; assay type: in vivo; details: Pseudomonas aeruginosa, A9843, im, 120 h; i.m., immediately after intraperitoneal challenge, 5 days observation; read-out: PD50 (median protective dose)
Description: as §1

S. aureus Smith [11] = assay: as above; assay type: in vivo; details: Staphylococcus aureus, im, 120 h; i.m., immediately after intraperitoneal challenge, 5 days observation; read-out: PD50 (median protective dose)
Description: as §1

B. fragilis Group I = assay: In vitro antianaerobic activity in GAM agar (Table 4); assay type: cell-based; details: Bacteroides fragilis
B. fragilis Group II = assay: as above; assay type: cell-based; details: Bacteroides fragilis; read-out: Geometric Mean of MIC
B. fragilis Group III = assay: as above; assay type: cell-based; details: read-out: Geometric Mean of MIC
[12] = tested on: Others Group IV (C. difficile, C. perfringens, P. acne and P. anaerobius); assay: microbe, parasite or virus in culture; assay type: cell-based; details: read-out: Geometric Mean of MIC, GAM agar, 1 strain each
[13] = prior-art filing; cited from earlier work

`CSc1ccc[n+](CC2=C(C(=O)[O-])N3C(=O)C(NC(=O)/C(=N\OC(C)(C)C(=O)O)c4csc(N)n4)C3SC2)c1` (stereo not drawn) [Example 1, 7-[(Z)-2-(2-Aminothiazol-4-yl)-2-(2-carboxyprop-2-oxyimino)acetamido]-3-[(3-methylthiopyridinium)methyl]-3-cephem-4-carboxylate] gave an MIC [1] of 4.7 µg/mL (≈ 7.93 µM), an MIC [2] of 12.5 µg/mL (≈ 21.1 µM) and an MIC [3] of 0.11 µg/mL (≈ 0.186 µM). It also gave an MIC [4] of 1.1 µg/mL (≈ 1.86 µM), an MIC [5] of 2.8 µg/mL (≈ 4.72 µM) and an MIC (Ps. aeruginosa (Gn-III)) of 3.5 µg/mL (≈ 5.91 µM). For the same compound, the MIC (S. aureus Smith [6]) was 6.3 µg/mL (≈ 10.6 µM), the MIC (S. aureus A9497) was 3.1 µg/mL (≈ 5.23 µM) and the MIC (S. aureus BX-1633) was 12.5 µg/mL (≈ 21.1 µM). The MIC (S. aureus A15092) was 12.5 µg/mL (≈ 21.1 µM), the MIC (E. coli Juhl [7]) was 0.2 µg/mL (≈ 0.337 µM) and the MIC (K. pneumoniae D11) was 0.4 µg/mL (≈ 0.675 µM). It also gave an MIC (P. mirabilis A9554) of 0.1 µg/mL (≈ 0.169 µM), an MIC (E. coli A15148) of 0.4 µg/mL (≈ 0.675 µM) and an MIC (K. pneumoniae A 9867) of 3.1 µg/mL (≈ 5.23 µM). The MIC (P. morganii A9553) was 1.6 µg/mL (≈ 2.7 µM), the MIC (E. cloacae A9656) was 0.4 µg/mL (≈ 0.675 µM) and the MIC (S. marcescens A20019) was 0.2 µg/mL (≈ 0.337 µM). It also gave an MIC (P. aeruginosa A15150) of 1.6 µg/mL (≈ 2.7 µM), an MIC (P. aeruginosa A9843 [8]) of 3.1 µg/mL (≈ 5.23 µM) and an MIC (P. aeruginosa A20717) of 12.5 µg/mL (≈ 21.1 µM). It also gave an MIC (B. fragilis A20928-1) of 6.3 µg/mL (≈ 10.6 µM), an MIC (B. fragilis A21900) of 6.3 µg/mL (≈ 10.6 µM) and an MIC (B. fragilis A22021) of 25 µg/mL (≈ 42.2 µM). For the same compound, the MIC (B. fragilis A22693) was 25 µg/mL (≈ 42.2 µM), the MIC (B. fragilis A22695) was 50 µg/mL (≈ 84.4 µM) and the MIC (B. fragilis A22533) was > 100 µg/mL. For the same compound, the MIC (C. difficile A21675) was > 100 µg/mL, the MIC (C. perfringens A9635) was 25 µg/mL (≈ 42.2 µM) and the MIC (P. acnes A21933) was 1.6 µg/mL (≈ 2.7 µM). It also gave an ED50 (E. coli Juhl [9]) of 0.46 mg/kg, an ED50 (P. aeruginosa A9843 [10]) of 12 mg/kg and an ED50 (S. aureus Smith [11]) of 6 mg/kg.
Compound `CSc1cccc[n+]1CC1=C(C(=O)[O-])N2C(=O)C(NC(=O)/C(=N\OC(C)(C)C(=O)O)c3csc(N)n3)C2SC1` (stereo not drawn) [Example 3, 7-[(Z)-2-(2-Aminothiazol-4-yl)-2-(2-carboxyprop-2-oxyimino)-acetamido]-3-[(2-methylthiopyridinium)methyl]-3-cephem-4-carboxylate] has an MIC [1] of 9.5 µg/mL (≈ 16 µM), an MIC [2] of 12.5 µg/mL (≈ 21.1 µM) and an MIC [3] of 0.11 µg/mL (≈ 0.186 µM). It also gave an MIC [4] of 2 µg/mL (≈ 3.37 µM), an MIC [5] of 3.2 µg/mL (≈ 5.4 µM) and an MIC (Ps. aeruginosa (Gn-III)) of 5.6 µg/mL (≈ 9.45 µM).
In the case of `CCSc1cc[n+](CC2=C(C(=O)[O-])N3C(=O)C(NC(=O)/C(=N\OC(C)(C)C(=O)O)c4csc(N)n4)C3SC2)cc1` (stereo not drawn) [Example 4, 7-[(Z)-2-(2-Aminothiazol-4-yl)-2-(2-carboxyprop-2-oxyimino)acetamido]-3-[(4-ethylthiopyridinium)methyl]-3-cephem-4-carboxylate], the MIC [1] is reported as 6.3 µg/mL (≈ 10.4 µM), the MIC [2] is reported as 12.5 µg/mL (≈ 20.6 µM) and the MIC [3] is reported as 0.087 µg/mL (≈ 0.143 µM). It also gave an MIC [4] of 1.3 µg/mL (≈ 2.14 µM), an MIC [5] of 2.1 µg/mL (≈ 3.46 µM) and an MIC (Ps. aeruginosa (Gn-III)) of 8.8 µg/mL (≈ 14.5 µM). For the same compound, the MIC (B. fragilis Group I; read-out: Geometric Mean of MIC, GAM agar, Example 4, ceftazidime (mean of 3 experiments), nonlactamase-producing, ampicillin-sensitive, 3 strains) was 2.5 µg/mL (≈ 4.12 µM), the MIC (B. fragilis Group II) was 12.5 µg/mL (≈ 20.6 µM) and the MIC (B. fragilis Group III) was 100 µg/mL (≈ 165 µM). The MIC ([12]; Example 4, ceftazidime (mean of 3 experiments)) was 8.9 µg/mL (≈ 14.7 µM).
Work on `CC(C)Sc1cc[n+](CC2=C(C(=O)[O-])N3C(=O)C(NC(=O)/C(=N\OC(C)(C)C(=O)O)c4csc(N)n4)C3SC2)cc1` (stereo not drawn) [Example 5, 7-[(Z)-2-(2-Aminothiazol-4-yl)-2-(2-carboxyprop-2-oxyimino)-acetamido]-3-[(4-isopropylthiopyridinium)methyl]-3-cephem-4-carboxylate] yielded an MIC [1] of 4.7 µg/mL (≈ 7.57 µM), an MIC [2] of 12.5 µg/mL (≈ 20.1 µM) and an MIC [3] of 0.11 µg/mL (≈ 0.177 µM). It also gave an MIC [4] of 1 µg/mL (≈ 1.61 µM), an MIC [5] of 2.4 µg/mL (≈ 3.87 µM) and an MIC (Ps. aeruginosa (Gn-III)) of 12.5 µg/mL (≈ 20.1 µM). The MIC (B. fragilis Group I; read-out: Geometric Mean of MIC) was 3.2 µg/mL (≈ 5.16 µM), the MIC (B. fragilis Group II) was 25 µg/mL (≈ 40.3 µM) and the MIC (B. fragilis Group III) was > 100 µg/mL. The MIC ([12]; Example 5 ceftazidime (mean of 2 experiments)) was 3.5 µg/mL (≈ 5.64 µM).
In the case of `CC(C)(O/N=C(\C(=O)N[C@@H]1C(=O)N2C(C(=O)[O-])=C(C[n+]3ccccc3)CS[C@H]12)c1csc(N)n1)C(=O)O` [bishydrochloride of ceftazidime], the storage stability [13] is listed as “good storage stability”.
